Experiments:
Experiment in all cases: Growth inhibition GI50 in vitro (CCK8/MTT, 72 h)
Format in all cases: cell-based, human
H1975 (EGFR L858R/T790M) = conditions: Homo sapiens, NCI-H1975; Table 13, 72 h; read-out: Range of GI50 H1975 (EGFR L858R/T790M)
Experimental: (§1) PC-9ER is an acquired Erlotinib resistance cell line of PC-9 cells developed by the investor. […] The four cell lines above were cultured with 1×RPMI1640 complete medium (supplement with 10% FBS). Human colon cancer cell line SW48 (EGFR G719S positive, ATCC). was cultured with L15 complete medium (10% FB S).
(§2) The suspension cells were collected by centrifugation. The supernatant was discard and the cell pellet was resuspended and counted. Different cell concentrations (5˜10×10^4 cells/mL) were prepared according to the growth cycle of each cell line and then seeded on a 96-well plate (Corning), 100 μL/well. The cells were incubated over night at 37° C., 5% CO2. The compounds were added to the cells on the second day with 2 wells in parallel. The final concentration of organic solvent shall not exceed 1%. The cells were continually incubated for 72 h, and then subjected to MTT assay.
(§3) The present compounds and the reference compounds were dissolved with DMSO (Sigma), respectively. […] The storage concentration of compounds was 10 mM and kept at −20° C. They were diluted by 2 times or 10 times with serial dilution before using.
(§4) Dojindo CCK8 reagent kit was used as MTT assay. […] FC meter was used as microplate reader.
(§5) Adherent cell culture medium was discard and immediately replaced with fresh prepared medium which contains 10% CCK8 reagent (100 μL/well). For the suspension cells, CCK8 was directly added to 10% of the final concentration. The cells were continually incubated for 1˜4 h. When the color of control wells turned to dark yellow, the absorption value was measured at OD450 nm. The cell growth rate was calculated according to the following formula: cell growth rate (%)=100*(T−T0)/(C−T0), T=optical density of drug treatment cell well—optical density of blank control well; T0=optical density of cell well before drug treatment—optical density of blank control well; C=optical density of cell well of solvent control group—optical density of blank control well. […] The experiment was independently repeated 1˜3 times, and subject to biological statistical analysis.

PC-9 (EGFR dE746-A750) = conditions: Homo sapiens; Table 13, 72 h; read-out: Range of GI50 PC-9 (EGFR dE746-A750)
Experimental: as §1, §2, §3, §4, §5

N87 (HER2 Amp) = conditions: Homo sapiens; Table 13, 72 h; read-out: Range of GI50 N87 (HER2 Amp)
A549 (EGFR WT) = conditions: Homo sapiens, A549; Table 13, 72 h; read-out: Range of GI50 A549 (EGFR WT)
Source text: EGFR wild type cell lines: human epidermal cancer cell line A431 (EGFR WT, amplification and high expression, from Shanghai Cell Bank of Chinese Academy of Sciences and ATCC), NSCLC cell lines NCI-H460 (EGFR WT, Kras G61H and PI3KCA E545K mutants, ATCC) and NCI-H1299 (EGFR WT, ATCC), melanoma cell line A375 (EGFR WT and BRAF V600E mutant, from Shanghai Cell Bank of Chinese Academy of Sciences, ATCC), human lung cancer cell line NCI-H292 (EGFR WT, from human lung mucoepidermoid carcinoma/lymphatic metastasis, purchased from Shanghai Cell Bank of Chinese Academy of Sciences) were cultured with 1×RPMI1640 complete medium which was supplement with 10% FBS. NSCLC cell line A549 (EGFR WT and Kras G12S mutant, from Shanghai Cell Bank of Chinese Academy of Sciences) was cultured with 1×Ham'S F12K complete medium which was supplement with 10% FBS, 1% double-antibiotics and 2 mM glutamine.
as §2, §3, §4, §5

| Compound | GI50 (H1975 (EGFR L858R/T790M)) | GI50 (PC-9 (EGFR dE746-A750)) | GI50 (A549 (EGFR WT)) | GI50 (N87 (HER2 Amp)) |
| --- | --- | --- | --- | --- |
| C=CC(=O)Nc1cc(Nc2nccc(-n3ccc4c(O)cccc43)n2)c(OC)cc1N(C)CCN(C)C [Compound 204, N-(5-(4-(4-hydroxyl-1H-indol-1-yl)-pyrimidin-2-ylamino)-2-(2-(dimethylamino-ethyl)-methyl-amino)-4-methoxyl-phenyl)-acrylamide] | 10 to 100 nM | 10 to 100 nM | > 1000 nM | < 10 nM |
| C=CC(=O)Nc1cc(Nc2nccc(-n3ccc4c(OCCCCCC)cccc43)n2)c(OC)cc1N(C)CCN(C)C [Compound 206, N-(5-(4-(4-n-hexyloxy-1H-indol-1-yl)-pyrimidin-2-ylamino)-2-(2-(dimethylamino-ethyl)-methyl-amino)-4-methoxyl-phenyl)-acrylamide] | 100 to 1000 nM | 100 to 1000 nM | > 1000 nM | 100 to 1000 nM |
| C=CC(=O)Nc1cc(Nc2nccc(-n3ccc4c(OCC5CCCO5)cccc43)n2)c(OC)cc1N(C)CCN(C)C (centres unmarked) [Compound 207, N-(5-(4-(4-((tetrahydrofuran-2-yl)-methoxyl)-1H-indol-1-yl)-pyrimidin-2-ylamino)-2-(2-(dimethylamino-ethyl)-methyl-amino)-4-methoxyl-phenyl)-acrylamide] | 10 to 100 nM | 10 to 100 nM | > 1000 nM | 10 to 100 nM |
| C=CC(=O)Nc1cc(Nc2nccc(-n3ccc4c(OC)cccc43)n2)c(OC)cc1N1CCC(N2CCN(C)CC2)CC1 [Compound 208, N-(5-(4-(4-methoxyl-1H-indol-1-yl)-pyrimidin-2-ylamino)-2-(4-(4-methyl-piperazin-1-yl)-piperidin-1-yl)-4-methoxyl-phenyl)-acrylamide] | 100 to 1000 nM | 100 to 1000 nM | > 1000 nM | 10 to 100 nM |
| C=CC(=O)Nc1cc(Nc2cc(Nc3ccc(OC)c(Cl)c3)ncn2)c(OC)cc1OCCN(C)C [Compound 218, N-(5-(6-(3-chloro-4-methoxyl-phenylamino)-pyrimidin-4-ylamino)-2-(2-dimethylamino-ethoxyl)-4-methoxyl-phenyl)-acrylamide] | 10 to 100 nM | < 10 nM | > 1000 nM | 10 to 100 nM |
| C=CC(=O)Nc1cc(Nc2cc(Nc3ccc(OCCC(C)C)c(Cl)c3)ncn2)c(OC)cc1N(C)CCN(C)C [Compound 219, N-(5-(6-(3-chloro-4-(3-methylbutoxy)-phenylamino)-pyrimidin-4-ylamino)-2-((2-dimethylaminoethyl)-methyl-amino)-4-methoxyphenyl)-acrylamide] | 10 to 100 nM | < 10 nM | > 1000 nM | 10 to 100 nM |
| C=CC(=O)Nc1cc(Nc2cc(Nc3ccc(OC)c(C(F)(F)F)c3)ncn2)c(OC)cc1N(C)CCN(C)C [Compound 222, N-(5-(6-(4-methoxyl-3-trifluoromethyl-phenylamino)-pyrimidin-4-yl-amino)-2-((2-dimethylamino-ethyl)-methyl-amino)-4-methoxyl-phenyl)-acrylamide] | 10 to 100 nM | < 10 nM | > 1000 nM | 10 to 100 nM |
| C=CC(=O)Nc1cc(Nc2cc(Nc3ccc(OCc4nccs4)c(Cl)c3)ncn2)c(OC)cc1N(C)CCN(C)C [Compound 223, N-(5-(6-(3-chloro-4-(thiazol-2-ylmethoxy)-phenylamino)-pyrimidin-4-ylamino)-2-((2-dimethylamino-ethyl)-methyl-amino)-4-methoxyl-phenyl)-acrylamide] | 10 to 100 nM | 10 to 100 nM | > 1000 nM | 10 to 100 nM |
| C=CC(=O)Nc1cc(Nc2cc(Nc3ccc(OC)c(Cl)c3)ncn2)c(OC)cc1N(C)CCN1CCCC1 [Compound 225] | 10 to 100 nM | 10 to 100 nM | – | 10 to 100 nM |
| C=CC(=O)Nc1cc(Nc2cc(Nc3ccc(Cl)c(C(F)(F)F)c3)ncn2)c(OC)cc1N(C)CCN(C)C [Compound 228, N-(5-(6-(4-chloro-3-trifluoromethyl-phenylamino)-pyrimidin-4-yl-amino)-2-((2-dimethylamino-ethyl)-methyl-amino)-4-methoxyl-phenyl)-acrylamide] | 10 to 100 nM | < 10 nM | > 1000 nM | 10 to 100 nM |
| C=CC(=O)Nc1cc(Nc2cc(Nc3ccc(OC(F)(F)F)c(Cl)c3)ncn2)c(OC)cc1N(C)CCN(C)C [Compound 235, N-(5-(6-(3-chloro-4-trifluoromethoxy-phenylamino)-pyrimidin-4-yl-amino)-2-((2-dimethylamino-ethyl)-methyl-amino)-4-methoxyl-phenyl)-acrylamide] | 10 to 100 nM | 10 to 100 nM | > 1000 nM | 10 to 100 nM |

Now from value to compound, other results behind:

| GI50 (H1975 (EGFR L858R/T790M)) | GI50 (PC-9 (EGFR dE746-A750)) | GI50 (A549 (EGFR WT)) | Compound | GI50 (N87 (HER2 Amp)) |
| --- | --- | --- | --- | --- |
| < 10 nM | < 10 nM | > 1000 nM | C=CC(=O)Nc1cc(Nc2ncc(Cl)c(-n3ccc4c(OC)cccc43)n2)c(OC)cc1N(C)CCN(C)C [Compound 203, N-(5-(4-(4-methoxyl-1H-indol-1-yl)-5-chloropyrimidin-2-ylamino)-2-(2-(dimethylamino-ethyl)-methyl-amino)-4-methoxyl-phenyl)-acrylamide] | < 10 nM |
| 10 to 100 nM | 10 to 100 nM | > 1000 nM | C=CC(=O)Nc1cc(Nc2nccc(-n3ccc4c(-n5c(C)ccc5C)cc(Br)cc43)n2)c(OC)cc1N(C)CCN(C)C [Compound 214] | 10 to 100 nM |
| 10 to 100 nM | < 10 nM | > 1000 nM | C=CC(=O)Nc1cc(Nc2cc(Nc3ccc(OCCN4CCOCC4)c(Cl)c3)ncn2)c(OC)cc1N(C)CCN(C)C [Compound 215, N-(5-(6-(3-chloro-4-(2-morpholin-4-yl-ethoxyl)-phenylamino)-pyrimidin-4-ylamino)-2-((2-dimethylamino-ethyl)-methyl-amino)-4-methoxyphenyl)-acrylamide] | 10 to 100 nM |
| 10 to 100 nM | < 10 nM | > 1000 nM | C=CC(=O)Nc1cc(Nc2cc(Nc3ccc(OC)c(Br)c3)ncn2)c(OC)cc1N(C)CCN(C)C [Compound 224, N-(5-(6-(4-methoxyl-3-bromo-phenylamino)-pyrimidin-4-yl-amino)-2-((2-dimethylamino-ethyl)-methyl-amino)-4-methoxyl-phenyl)-acrylamide] | 10 to 100 nM |
| 10 to 100 nM | < 10 nM | > 1000 nM | C=CC(=O)Nc1cc(Nc2cc(Nc3ccc(F)c(C(F)(F)F)c3)ncn2)c(OC)cc1N(C)CCN(C)C [Compound 226, N-(5-(6-(4-fluoro-3-trifluoromethyl-phenylamino)-pyrimidin-4-yl-amino)-2-((2-dimethylamino-ethyl)-methyl-amino)-4-methoxyl-phenyl)-acrylamide] | 10 to 100 nM |
| 100 to 1000 nM | < 10 nM | > 1000 nM | C=CC(=O)Nc1cc(Nc2cc(Nc3ccc(OC)c(Cl)c3)ncn2)c(OC)cc1N1CCN(C2CCN(C)CC2)CC1 [Compound 227, N-(5-(6-(3-chloro-4-methoxyl-phenylamino)-pyrimidin-4-ylamino)-2-(4-(1-methylpiperidin-4-yl)-piperazin-1-yl)-4-methoxyl-phenyl)-acrylamide] | 10 to 100 nM |
| 10 to 100 nM | 10 to 100 nM | > 1000 nM | C=CC(=O)Nc1cc(Nc2cc(Nc3ccc(C(F)(F)F)c(Cl)c3)ncn2)c(OC)cc1N(C)CCN(C)C [Compound 234, N-(5-(6-(3-chloro-4-trifluoromethyl-phenylamino)-pyrimidin-4-yl-amino)-2-((2-dimethylamino-ethyl)-methyl-amino)-4-methoxyl-phenyl)-acrylamide] | 10 to 100 nM |

Reference: patent US10342796B2, “Acrylanilide derivative, preparation method, and applications thereof in pharmacy” (Ancureall Pharmaceutical (Shanghai) Co., Ltd., priority 2015, dated 2019)
